Source: patent publication US9302999B2, “Substituted triazoles as herbicides” (E. I. DU PONT DE NEMOURS AND COMPANY, priority 2012, dated 2016)

Tests used:
Type in all cases: in vivo
[1] = test system: canarygrass (Phalaris minor); assay: Test C postemergence: canarygrass
Outline: (§1)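 Crop and weed plants were grown in peat-vermiculite medium and treated postemergence at the 1- to 4-leaf stage (2-18 cm tall). After 13-15 days in a greenhouse, each species was rated visually against untreated controls on a 0-100 scale (0 no effect, 100 complete control).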

[2] = test system: windgrass (Apera spica-venti); assay: Test C postemergence: windgrass
Outline: as §1

[3] = test system: goosegrass (Eleusine indica); assay: Test C pre-/postemergence: goosegrass
Outline: (§2)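 Preemergence on seeds in loam/sand, postemergence on 2–18 cm (1–4-leaf) plants in peat-based medium; compounds in non-phytotoxic solvent with surfactant. After 13–15 days in greenhouse, visual rating versus controls, 0 (no effect) to 100 (complete control).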

[4] = test system: bermudagrass (Cynodon dactylon); assay: Test C pre-/postemergence: bermudagrass
Outline: as §2

[5] = test system: surinam grass (Brachiaria decumbens); assay: Test C pre-/postemergence: surinam grass
Outline: as §2

[6] = test system: woolly cupgrass (Eriochloa villosa); assay: Test C pre-/postemergence: woolly cupgrass
Outline: as §2

[7] = test system: bromegrass, downy (downy bromegrass, Bromus tectorum); assay: Test C pre-/postemergence: bromegrass, downy
Outline: as §2

[8] = test system: deadnettle (henbit deadnettle, Lamium amplexicaule); assay: Test C postemergence: deadnettle
Outline: as §1

[9] = test system: common (oilseed) sunflower (Helianthus annuus); assay: Test C pre-/postemergence: sunflower; conditions: Preemergence
Outline: as §2

[10] = test system: cocklebur (common cocklebur, Xanthium strumarium); assay: Test C pre-/postemergence: cocklebur
Outline: as §2

[11] = 31 g ai/ha, scale 0 to 100 (0 no effect, 100 complete control)
[12] = 62 g ai/ha, scale 0 to 100 (0 no effect, 100 complete control)
[13] = 125 g ai/ha, scale 0 to 100, 0 no effect, 100 complete control
[14] = Postemergence, 31 g ai/ha, scale 0 to 100 (0 no effect, 100 complete control)
[15] = Postemergence, 62 g ai/ha, scale 0 to 100 (0 no effect, 100 complete control)
[16] = Postemergence, 125 g ai/ha, scale 0 to 100, 0 no effect, 100 complete control
[17] = Postemergence, 250 g ai/ha, scale 0 to 100
[18] = Preemergence, 31 g ai/ha, scale of 0 to 100, 0 is no effect, 100 is complete control
[19] = Preemergence, 62 g ai/ha, scale of 0 to 100, 0 is no effect, 100 is complete control
[20] = Preemergence, 125 g ai/ha, scale 0 to 100, 0 no effect, 100 complete control
[21] = Preemergence, 250 g ai/ha, scale 0 to 100, 0 no effect, 100 complete control
[22] = Preemergence, 62 g ai/ha, scale 0 to 100, 0 no effect, 100 complete control
[23] = 31 g ai/ha, scale of 0 to 100, 0 is no effect, 100 is complete control
[24] = 62 g ai/ha, scale of 0 to 100, 0 is no effect, 100 is complete control
[25] = 250 g ai/ha, scale 0 to 100, 0 no effect, 100 complete control

SMILES: Fc1ccc(-n2nc(Cc3ccnc(C(F)(F)F)c3)c(OC(F)F)n2)cc1 [Compound 25]
- Plant response rating, Canarygrass [1, 11]: 5
- Plant response rating, Canarygrass [1, 12]: 10
- Plant response rating, Canarygrass [1, 13]: 30
- Plant response rating, Canarygrass ([1]; 250 g ai/ha, scale 0 to 100): 55
- Plant response rating, Windgrass [2, 11]: 30
- Plant response rating, Windgrass [2, 12]: 35
- Plant response rating, Windgrass [2, 13]: 40
- Plant response rating, Windgrass ([2]; 250 g ai/ha, scale 0 to 100): 40
- Plant response rating, Goosegrass [3, 14]: 15
- Plant response rating, Goosegrass [3, 15]: 20
- Plant response rating, Goosegrass [3, 16]: 25
- Plant response rating, Goosegrass [3, 17]: 40
- Plant response rating, Goosegrass [3, 18]: 90
- Plant response rating, Goosegrass [3, 19]: 100
- Plant response rating, Goosegrass [3, 20]: 100
- Plant response rating, Goosegrass [3, 21]: 100
- Plant response rating, Bermudagrass [4, 14]: 15
- Plant response rating, Bermudagrass [4, 15]: 20
- Plant response rating, Bermudagrass [4, 16]: 25
- Plant response rating, Bermudagrass [4, 17]: 25
- Plant response rating, Bermudagrass [4, 18]: 85
- Plant response rating, Bermudagrass [4, 22]: 98
- Plant response rating, Bermudagrass [4, 20]: 98
- Plant response rating, Bermudagrass [4, 21]: 100
- Plant response rating, Surinam Grass [5, 14]: 10
- Plant response rating, Surinam Grass [5, 15]: 15
- Plant response rating, Surinam Grass [5, 16]: 20
- Plant response rating, Surinam Grass [5, 17]: 20
- Plant response rating, Surinam Grass [5, 18]: 15
- Plant response rating, Surinam Grass [5, 19]: 20
- Plant response rating, Surinam Grass [5, 20]: 55
- Plant response rating, Surinam Grass [5, 21]: 100
- Plant response rating, Cupgrass, Woolly [6, 14]: 25
- Plant response rating, Cupgrass, Woolly [6, 15]: 25
- Plant response rating, Cupgrass, Woolly [6, 16]: 25
- Plant response rating, Cupgrass, Woolly [6, 17]: 45
- Plant response rating, Cupgrass, Woolly [6, 18]: 20
- Plant response rating, Cupgrass, Woolly [6, 19]: 40
- Plant response rating, Cupgrass, Woolly [6, 20]: 65
- Plant response rating, Cupgrass, Woolly [6, 21]: 98
- Plant response rating, Bromegrass, Downy [7, 14]: 5
- Plant response rating, Bromegrass, Downy [7, 15]: 5
- Plant response rating, Bromegrass, Downy [7, 16]: 5
- Plant response rating, Bromegrass, Downy [7, 17]: 10
- Plant response rating, Bromegrass, Downy [7, 18]: 5
- Plant response rating, Bromegrass, Downy [7, 22]: 5
- Plant response rating, Bromegrass, Downy [7, 20]: 40
- Plant response rating, Bromegrass, Downy [7, 21]: 80
- Plant response rating, Deadnettle [8, 11]: 50
- Plant response rating, Deadnettle [8, 12]: 55
- Plant response rating, Deadnettle [8, 13]: 90
- Plant response rating, Deadnettle ([8]; 250 g ai/ha, scale 0 to 100): 100
- Plant response rating, Sunflower [9, 23]: 0
- Plant response rating, Sunflower [9, 24]: 0
- Plant response rating, Sunflower [9, 13]: 0
- Plant response rating, Sunflower [9, 25]: 0
- Plant response rating, Cocklebur [10, 14]: 15
- Plant response rating, Cocklebur [10, 15]: 20
- Plant response rating, Cocklebur [10, 16]: 20
- Plant response rating, Cocklebur [10, 17]: 20
- Plant response rating, Cocklebur [10, 18]: 0
- Plant response rating, Cocklebur [10, 22]: 0
- Plant response rating, Cocklebur [10, 20]: 0
- Plant response rating, Cocklebur [10, 21]: 30

SMILES: COc1nn(-c2ccc(C(F)(F)F)cc2)nc1Cc1ccnc(C(F)F)c1 [Compound 138]
- Plant response rating, Canarygrass [1, 11]: 30
- Plant response rating, Canarygrass [1, 12]: 55
- Plant response rating, Canarygrass [1, 13]: 70
- Plant response rating, Canarygrass ([1]; 250 g ai/ha, scale 0 to 100): 90
- Plant response rating, Windgrass [2, 11]: 50
- Plant response rating, Windgrass [2, 12]: 50
- Plant response rating, Windgrass [2, 13]: 55
- Plant response rating, Windgrass ([2]; 250 g ai/ha, scale 0 to 100): 80
- Plant response rating, Goosegrass [3, 14]: 5
- Plant response rating, Goosegrass [3, 15]: 25
- Plant response rating, Goosegrass [3, 16]: 50
- Plant response rating, Goosegrass [3, 17]: 80
- Plant response rating, Goosegrass [3, 18]: 100
- Plant response rating, Goosegrass [3, 19]: 100
- Plant response rating, Goosegrass [3, 20]: 100
- Plant response rating, Goosegrass [3, 21]: 100
- Plant response rating, Bermudagrass [4, 14]: 20
- Plant response rating, Bermudagrass [4, 15]: 45
- Plant response rating, Bermudagrass [4, 16]: 75
- Plant response rating, Bermudagrass [4, 17]: 95
- Plant response rating, Bermudagrass [4, 18]: 100
- Plant response rating, Bermudagrass [4, 19]: 100
- Plant response rating, Bermudagrass [4, 20]: 100
- Plant response rating, Bermudagrass [4, 21]: 100
- Plant response rating, Surinam Grass [5, 14]: 45
- Plant response rating, Surinam Grass [5, 15]: 50
- Plant response rating, Surinam Grass [5, 16]: 65
- Plant response rating, Surinam Grass [5, 18]: 55
- Plant response rating, Surinam Grass [5, 19]: 80
- Plant response rating, Surinam Grass [5, 20]: 85
- Plant response rating, Surinam Grass [5, 21]: 100
- Plant response rating, Cupgrass, Woolly [6, 14]: 50
- Plant response rating, Cupgrass, Woolly [6, 15]: 55
- Plant response rating, Cupgrass, Woolly [6, 16]: 55
- Plant response rating, Cupgrass, Woolly [6, 17]: 85
- Plant response rating, Cupgrass, Woolly [6, 18]: 60
- Plant response rating, Cupgrass, Woolly [6, 19]: 90
- Plant response rating, Cupgrass, Woolly [6, 20]: 95
- Plant response rating, Cupgrass, Woolly [6, 21]: 100
- Plant response rating, Bromegrass, Downy [7, 14]: 40
- Plant response rating, Bromegrass, Downy [7, 15]: 45
- Plant response rating, Bromegrass, Downy [7, 16]: 50
- Plant response rating, Bromegrass, Downy [7, 17]: 65
- Plant response rating, Bromegrass, Downy [7, 18]: 10
- Plant response rating, Bromegrass, Downy [7, 19]: 30
- Plant response rating, Bromegrass, Downy [7, 20]: 60
- Plant response rating, Bromegrass, Downy [7, 21]: 80
- Plant response rating, Deadnettle [8, 11]: 98
- Plant response rating, Deadnettle [8, 12]: 100
- Plant response rating, Deadnettle [8, 13]: 100
- Plant response rating, Deadnettle ([8]; 250 g ai/ha, scale 0 to 100): 100
- Plant response rating, Sunflower [9, 23]: 5
- Plant response rating, Sunflower [9, 24]: 10
- Plant response rating, Sunflower [9, 13]: 30
- Plant response rating, Sunflower [9, 25]: 30
- Plant response rating, Cocklebur [10, 14]: 65
- Plant response rating, Cocklebur [10, 15]: 70
- Plant response rating, Cocklebur [10, 16]: 85
- Plant response rating, Cocklebur [10, 17]: 85
- Plant response rating, Cocklebur [10, 18]: 5
- Plant response rating, Cocklebur [10, 19]: 5
- Plant response rating, Cocklebur [10, 20]: 15
- Plant response rating, Cocklebur [10, 21]: 15
